pIC50: −log10 of the molar value.
Biological target: T1, human NaV1.8 (Homo sapiens, UniProt Q9Y5Y9)
T1 construct: expressed in transfected cells
Assay: Nav1.8 Qube® Assay (automated 384-well patch-clamp, inhibition of sodium current)
Format: cell-based
Details: human NaV1.8 channels stably expressed in HEK 293 cells, room temperature
Outline: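 Whole-cell voltage clamp at room temperature in HEK293 cells stably expressing NaV1.8; from −90 mV hold, 10 s 1 Hz train of 20 ms pulses to 10 mV with 980 ms repolarization to −67 mV. Peak currents of 1st and 10th pulses give resting and inactivated-state IC50s, Hill fit.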

T1 sequence (Q9Y5Y9 whole entry): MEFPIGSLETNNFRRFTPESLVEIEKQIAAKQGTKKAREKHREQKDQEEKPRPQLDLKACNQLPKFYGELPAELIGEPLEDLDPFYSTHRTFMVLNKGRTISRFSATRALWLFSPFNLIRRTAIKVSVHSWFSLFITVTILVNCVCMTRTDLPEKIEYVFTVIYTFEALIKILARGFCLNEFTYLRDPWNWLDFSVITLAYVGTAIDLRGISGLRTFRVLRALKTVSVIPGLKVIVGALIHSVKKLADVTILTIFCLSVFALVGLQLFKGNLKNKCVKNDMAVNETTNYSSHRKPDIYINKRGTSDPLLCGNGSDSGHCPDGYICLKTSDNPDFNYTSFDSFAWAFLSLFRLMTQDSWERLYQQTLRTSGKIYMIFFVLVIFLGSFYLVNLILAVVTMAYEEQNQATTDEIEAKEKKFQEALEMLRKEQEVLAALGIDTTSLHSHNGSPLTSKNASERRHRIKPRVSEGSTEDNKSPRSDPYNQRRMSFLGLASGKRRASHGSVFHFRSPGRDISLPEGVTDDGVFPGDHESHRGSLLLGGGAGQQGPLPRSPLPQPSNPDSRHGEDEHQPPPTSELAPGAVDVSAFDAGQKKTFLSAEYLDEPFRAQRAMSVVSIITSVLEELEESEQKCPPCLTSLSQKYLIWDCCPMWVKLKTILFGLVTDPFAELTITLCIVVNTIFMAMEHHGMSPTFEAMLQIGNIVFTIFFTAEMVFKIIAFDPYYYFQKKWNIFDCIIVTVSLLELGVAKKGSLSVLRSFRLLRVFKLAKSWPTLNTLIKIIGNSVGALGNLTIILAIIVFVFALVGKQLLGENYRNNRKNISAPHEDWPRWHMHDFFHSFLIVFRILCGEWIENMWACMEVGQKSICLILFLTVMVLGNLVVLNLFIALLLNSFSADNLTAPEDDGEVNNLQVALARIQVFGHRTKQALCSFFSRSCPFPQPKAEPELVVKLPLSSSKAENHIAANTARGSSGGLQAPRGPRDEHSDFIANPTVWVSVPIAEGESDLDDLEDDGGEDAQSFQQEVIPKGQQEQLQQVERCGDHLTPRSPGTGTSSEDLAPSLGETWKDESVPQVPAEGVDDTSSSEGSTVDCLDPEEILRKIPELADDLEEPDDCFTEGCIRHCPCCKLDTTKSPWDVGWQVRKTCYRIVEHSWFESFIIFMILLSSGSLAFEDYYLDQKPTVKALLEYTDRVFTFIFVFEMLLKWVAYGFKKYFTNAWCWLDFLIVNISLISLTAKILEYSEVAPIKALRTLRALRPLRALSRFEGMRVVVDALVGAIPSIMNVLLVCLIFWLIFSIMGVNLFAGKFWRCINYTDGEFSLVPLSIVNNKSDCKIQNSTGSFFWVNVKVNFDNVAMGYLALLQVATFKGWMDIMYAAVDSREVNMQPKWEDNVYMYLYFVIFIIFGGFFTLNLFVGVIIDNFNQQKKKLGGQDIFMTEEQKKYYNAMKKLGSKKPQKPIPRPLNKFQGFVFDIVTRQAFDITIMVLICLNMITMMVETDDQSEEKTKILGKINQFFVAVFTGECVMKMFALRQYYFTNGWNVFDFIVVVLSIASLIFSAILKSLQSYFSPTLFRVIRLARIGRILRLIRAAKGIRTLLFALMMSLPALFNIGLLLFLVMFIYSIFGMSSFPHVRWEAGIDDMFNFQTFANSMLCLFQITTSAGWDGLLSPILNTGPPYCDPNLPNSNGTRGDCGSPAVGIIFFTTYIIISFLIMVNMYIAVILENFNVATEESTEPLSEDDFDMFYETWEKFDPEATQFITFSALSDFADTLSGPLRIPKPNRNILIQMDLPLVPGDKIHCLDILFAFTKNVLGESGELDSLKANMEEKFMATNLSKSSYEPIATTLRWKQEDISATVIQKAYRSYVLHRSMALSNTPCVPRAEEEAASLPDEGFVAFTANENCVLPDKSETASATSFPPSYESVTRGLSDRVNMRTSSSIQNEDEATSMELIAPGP

Row | Compound | pIC50
1 | C[C@@H]1C(=O)NCCN1C(=O)NC(c1ccc(F)c(Cl)c1)C1CCC(F)(F)CC1 (single isomer, unassigned) [Example 14A, (2R)-N-((R or S)-(3-chloro-4-fluoro-phenyl)(4,4-difluoro-cyclohexyl)methyl)-2-methyl-3-oxo-piperazine-1-carboxamide] | 7.73
2 | CC(N1CCC(C(NC(=O)N2CCNC(=O)[C@H]2C)c2ccc(F)c(Cl)c2)CC1)C(F)(F)F (single isomer, unassigned) [Example 18A] | 8.39
3 | C=C1CC(C(NC(=O)N2CCNC(=O)[C@H]2C)c2ccc(F)c(Cl)c2F)C1 (single isomer, unassigned) [Example 25A, (2R)-N-((R or S)-(3-chloro-2,4-difluoro-phenyl)(3-methylene-cyclobutyl)methyl)-2-methyl-3-oxopiperazine-1-carboxamide] | 7.98
4 | C[C@@H]1C(=O)NCCN1C(=O)NC(c1ccc(Cl)cc1)C1CCN(CC(F)(F)F)CC1 (single isomer, unassigned) [Example 16B, (2R)-N-((S or R)-(4-chlorophenyl)(1-(2,2,2-trifluoroethyl)piperidin-4-yl)methyl)-2-methyl-3-oxopiperazine-1-carboxamide] | 6.03
5 | C[C@@H]1C(=O)NCCN1C(=O)NC(c1ccc(F)c(Cl)c1F)[C@H]1C[C@@H]1C(F)(F)F (single isomer, unassigned) [Example 57C] | 6.25
6 | [2H]C1([2H])NC(=O)C(C)N(C(=O)N[C@H](c2ccc(F)c(Cl)c2F)[C@H]2C[C@H](C(F)(F)F)C2)C1([2H])[2H] (single isomer, unassigned) [Example 59B, (S or R)—N—((S)-(3-chloro-2,4-difluorophenyl)((trans)-3-(trifluoromethyl)cyclobutyl)methyl)-2-methyl-3-oxopiperazine-5,5,6,6-d4-1-carboxamide] | 7.36
7 | CC(N1CCC(C(NC(=O)N2CCNC(=O)[C@H]2C)c2ccc(F)c(Cl)c2)CC1)C(F)(F)F (single isomer, unassigned) [Example 18D] | 7.08
8 | C[C@@H]1C(=O)NCCN1C(=O)NC(c1ccc(F)c(Cl)c1)C1CC(C(F)(F)F)C1 (single isomer, unassigned) [Example 43D, (2R)-N-((S or R)-(3-chloro-4-fluorophenyl)-(cis-3-(trifluoromethyl)-cyclobutyl)methyl)-2-methyl-3-oxopiperazine-1-carboxamide] | 7.66
9 | C[C@@H]1C(=O)NCCN1C(=O)NC(c1ccc(F)c(Cl)c1F)C1COc2ccccc2C1 (single isomer, unassigned) [Example 62C, (R)—N—((S or R)-(3-chloro-2,4-difluorophenyl)((R or S)-chroman-3-yl)methyl)-2-methyl-3-oxopiperazine-1-carboxamide] | 6.31
10 | C[C@@H]1C(=O)NCCN1C(=O)NC(c1ccc(F)c(Cl)c1)C1CC(OCC(F)(F)F)C1 (single isomer, unassigned) [Example 44A, (2R)—N—((R or S)-(3-chloro-4-fluorophenyl)(cis-3-(2,2,2-trifluoroethoxy)cyclobutyl)methyl)-2-methyl-3-oxopiperazine-1-carboxamide] | 7.04
11 | C[C@@H]1C(=O)NCCN1C(=O)NC(c1ccc(Cl)c(C(F)(F)F)n1)C1CC(C(F)(F)F)C1 (single isomer, unassigned) [Example 47B, (2R)—N—((R or S)-(5-chloro-6-(trifluoromethyl)pyridin-2-yl)(trans-3-(trifluoromethyl)cyclobutyl)methyl)-2-methyl-3-oxopiperazine-1-carboxamide] | 7.21
12 | C[C@@H]1C(=O)NCCN1C(=O)NC(c1ccc(OC(F)(F)F)c(F)c1)[C@H]1C[C@H](C(F)(F)F)C1 (single isomer, unassigned) [Example 49A] | 8.35
13 | C[C@@H]1C(=O)NCCN1C(=O)NC(c1ccc(F)c(Cl)c1F)C1CC(C(F)(F)F)C1 (single isomer, unassigned) [Example 20A] | 8.86
14 | O=C1CN(C(=O)NC(c2ccc(F)c(Cl)c2)C2CC3CCC(C2)C3(F)F)CCN1 (single isomer, unassigned) [Example 2A, N-((R or S)-(3-chloro-4-fluoro-phenyl)(8,8-difluoro-bicyclo[3.2.1]octan-3-yl)methyl)-3-oxopiperazine-1-carboxamide] | 7.18
15 | C[C@@H]1C(=O)NCCN1C(=O)NC(c1ccc(F)c(Cl)c1)[C@@H]1C[C@@H]2[C@H](C1)C2(F)F (single isomer, unassigned) [Example 7A, (2R)-N-((R or S)-(3-chloro-4-fluoro-phenyl)((1R,3s,5S)-6,6-difluoro-bicyclo[3.1.0]hexan-3-yl)methyl)-2-methyl-3-oxo-piperazine-1-carboxamide] | 6.95
16 | C[C@@H]1C(=O)NCCN1C(=O)NC(C)(c1ccc(F)c(Cl)c1)C1CC(C(F)(F)F)C1 (single isomer, unassigned) [Example 48A, (2R)—N—((R or S)-1-(3-chloro-4-fluorophenyl)-1-(cis-3-(trifluoromethyl)cyclobutyl)ethyl)-2-methyl-3-oxopiperazine-1-carboxamide] | 5.36
17 | O=C1CN(C(=O)N[C@H](c2ccc(F)c(Cl)c2F)[C@H]2C[C@H](C(F)(F)F)C2)CCN1 [Example 26, N—((S)-(3-chloro-2,4-difluorophenyl)(trans-3-(trifluoromethyl)cyclobutyl)methyl)-3-oxopiperazine-1-carboxamide] | 8.17
18 | O=C1CN(C(=O)NC(c2ccc(F)c(C(F)(F)F)c2)[C@H]2C[C@H](C(F)(F)F)C2)CCN1 (single isomer, unassigned) [Example 52A, N-((R or S)-(4-fluoro-3-(trifluoromethyl)phenyl) (trans-3-(trifluoro-methyl)cyclobutyl)-methyl)-3-oxo-piperazine-1-carboxamide] | 6.50
19 | C[C@@H]1C(=O)NCCN1C(=O)NC(c1ccc(OC(F)(F)F)cc1F)[C@H]1C[C@H](C(F)(F)F)C1 (single isomer, unassigned) [Example 50B, (2R)-N-((S or R)-(2-fluoro-4-(trifluoro-methoxy)phenyl)(trans-3-(trifluoro-methyl)-cyclobutyl)-methyl)-2-methyl-3-oxopiperazine-1-carboxamide] | 8.05
20 | [2H]C1([2H])NC(=O)C(C)N(C(=O)N[C@H](c2ccc(F)c(Cl)c2F)[C@H]2C[C@H](C(F)(F)F)C2)C1([2H])[2H] (single isomer, unassigned) [Example 59A, (R or S)—N—((S)-(3-chloro-2,4-difluorophenyl)((trans)-3-(trifluoromethyl)cyclobutyl)methyl)-2-methyl-3-oxopiperazine-5,5,6,6-d4-1-carboxamide] | 8.59
21 | C[C@@H]1C(=O)NCCN1C(=O)NC(c1ccc(OC(F)(F)F)c(F)c1)[C@H]1C[C@H](C(F)(F)F)C1 (single isomer, unassigned) [Example 49B] | 7.07
22 | C[C@@H]1C(=O)NCCN1C(=O)NC(c1ccc(Cl)c(C(F)(F)F)n1)C1CC(C(F)(F)F)C1 (single isomer, unassigned) [Example 47A, (2R)—N—((R or S)-(5-chloro-6-(trifluoromethyl)pyridin-2-yl)(cis-3-(trifluoromethyl)-cyclobutyl)methyl)-2-methyl-3-oxopiperazine-1-carboxamide] | 7.94

Reference: patent US20220380338A1, “CYCLOALKYL 3-OXOPIPERAZINE CARBOXAMIDES AND CYCLOHETEROALKYL 3-OXOPIPERAZINE CARBOXAMIDES AS NAV1.8 INHIBITORS” (Merck Sharp & Dohme LLC, priority 2021, published 2022)
